Article PMC11356873, “Trolox, Ferulic, Sinapic, and Cinnamic Acid Derivatives of Proline and GABA with Antioxidant and/or Anti-Inflammatory Properties” (Molecules, 2024)

Tests used:
[1] = molecular target: Bovine serum albumin (Bos taurus, UniProt P02769); experiment: Inhibition of fructose/copper-induced oxidative protein glycation; type: biochemical; conditions: concentration of 1mM, after 72 h of incubation
Experimental: The purification of the glycation product was based on protein precipitation and washing with trichloroacetic acid (TCA). The concentration of the glycation-modified protein was estimated by fluorescence measurements (excitation of 340 nm, emission of 410 nm). Incubations performed under the same conditions, yet in the absence of fructose, were used as a control. All the fluorescence measurements were expressed relatively to the standard quinine sulphate solution (1 μg/mL).

[2] = tested on: lipid peroxidation of rat hepatic microsomal membranes; experiment: Inhibition of lipid peroxidation of rat hepatic microsomal membranes (TBA-reactive material); conditions: for IC50: read-out: IC50, lipid peroxidation; for IC50 / IC50, lipid peroxidation: rat hepatic microsomal membranes, after 45 min of incubation
[3] = molecular target: T1, acetylcholinesterase (Rattus norvegicus, UniProt P37136); experiment: Acetylcholinesterase inhibition (acetylthiocholine hydrolysis, rat brain homogenate); type: biochemical; conditions: acetylthiocholine 0.5 mM, after 7 min of incubation
T1 construct: mixed with brain homogenate (20 mg of tissue per mL) from untreated rats; from tissue; host or cells: rat brain homogenate
T1 sequence (P37136 32-614): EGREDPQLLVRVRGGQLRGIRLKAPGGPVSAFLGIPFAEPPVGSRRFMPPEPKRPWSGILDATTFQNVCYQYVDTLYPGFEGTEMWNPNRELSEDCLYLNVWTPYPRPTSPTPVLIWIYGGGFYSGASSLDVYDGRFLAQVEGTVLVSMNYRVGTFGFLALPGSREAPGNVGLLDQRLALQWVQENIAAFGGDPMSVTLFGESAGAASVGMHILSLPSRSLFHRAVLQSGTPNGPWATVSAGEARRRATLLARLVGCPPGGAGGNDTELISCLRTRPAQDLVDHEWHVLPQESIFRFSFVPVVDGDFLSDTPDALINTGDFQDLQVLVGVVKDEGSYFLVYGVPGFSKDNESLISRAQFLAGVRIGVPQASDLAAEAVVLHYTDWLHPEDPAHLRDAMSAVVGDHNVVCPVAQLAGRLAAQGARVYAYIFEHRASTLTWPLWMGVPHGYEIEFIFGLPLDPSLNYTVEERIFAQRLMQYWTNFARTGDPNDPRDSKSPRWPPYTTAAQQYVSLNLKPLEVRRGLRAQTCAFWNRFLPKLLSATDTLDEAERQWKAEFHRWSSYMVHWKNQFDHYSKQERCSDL
Experimental: The tested compounds, dissolved in 60% ethanol, were mixed with brain homogenate (20 mg of tissue per mL) from untreated rats (in 0.1 M phosphate buffer with a pH of 8) and acetylthiocholine (0.5 mM).

[4] = molecular target: T2, soybean lipoxygenase (Glycine max, UniProt P08170); experiment: Soybean lipoxygenase inhibition; type: biochemical
T2 construct: purchased Sigma (St. Louis, MO, USA)
T2 sequence (P08170 1-839): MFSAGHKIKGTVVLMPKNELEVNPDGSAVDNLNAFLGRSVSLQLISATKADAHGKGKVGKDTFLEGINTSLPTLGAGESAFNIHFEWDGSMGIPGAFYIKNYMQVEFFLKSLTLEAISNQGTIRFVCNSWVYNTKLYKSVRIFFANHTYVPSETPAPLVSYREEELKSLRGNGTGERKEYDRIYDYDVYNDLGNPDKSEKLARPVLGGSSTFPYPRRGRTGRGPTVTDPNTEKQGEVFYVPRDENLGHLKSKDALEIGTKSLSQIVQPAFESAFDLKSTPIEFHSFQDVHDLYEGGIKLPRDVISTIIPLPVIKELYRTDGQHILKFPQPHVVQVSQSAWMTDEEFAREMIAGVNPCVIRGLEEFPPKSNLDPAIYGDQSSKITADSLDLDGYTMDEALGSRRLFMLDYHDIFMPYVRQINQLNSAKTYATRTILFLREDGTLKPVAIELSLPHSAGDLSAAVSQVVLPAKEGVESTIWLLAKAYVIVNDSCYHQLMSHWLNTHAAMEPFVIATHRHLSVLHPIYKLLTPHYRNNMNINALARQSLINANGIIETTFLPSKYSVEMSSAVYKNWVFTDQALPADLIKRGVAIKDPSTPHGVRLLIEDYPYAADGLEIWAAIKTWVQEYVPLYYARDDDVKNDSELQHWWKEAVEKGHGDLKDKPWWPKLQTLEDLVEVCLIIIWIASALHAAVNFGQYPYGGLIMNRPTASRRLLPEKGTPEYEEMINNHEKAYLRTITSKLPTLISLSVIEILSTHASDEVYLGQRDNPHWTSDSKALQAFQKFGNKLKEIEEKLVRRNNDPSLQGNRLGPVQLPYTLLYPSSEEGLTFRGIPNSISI
Experimental: The reaction mixture (total volume of 3 mL) contained 100 μL of the test compounds (100 μM) or the solvent (absolute ethanol, control), 200 μL of soybean LOX (250 u/mL, in a 0.9% NaCl solution), and 2.6 mL of Tris–HCl buffer with a pH of 9.0. The reaction was initiated by the addition of 100 μL sodium linoleate (100 μM) in the sample mixture (with an equal volume of buffer added to the reference solution). The reaction was followed for 7 min at 28 °C, and the absorbance (234 nm) of a conjugated diene structure was recorded.

[5] = Interaction with the stable free radical DPPH; conditions: for % Interaction with DPPH / Time to completion of the reaction with DPPH: DPPH 200 μΜ; for % Interaction with DPPH: after 30 min of incubation; for Interaction with DPPH (in words): 25-200 μΜ
Experimental: The tested compounds, dissolved in absolute ethanol at final concentrations of 25 up to 200 μΜ, were mixed with DPPH and dissolved in the same solvent at a final concentration of 200 μΜ. The absorbance at 517 nm was recorded every 5 min for 30 min [41].

Bovine serum albumin, sequence (P02769 25-607): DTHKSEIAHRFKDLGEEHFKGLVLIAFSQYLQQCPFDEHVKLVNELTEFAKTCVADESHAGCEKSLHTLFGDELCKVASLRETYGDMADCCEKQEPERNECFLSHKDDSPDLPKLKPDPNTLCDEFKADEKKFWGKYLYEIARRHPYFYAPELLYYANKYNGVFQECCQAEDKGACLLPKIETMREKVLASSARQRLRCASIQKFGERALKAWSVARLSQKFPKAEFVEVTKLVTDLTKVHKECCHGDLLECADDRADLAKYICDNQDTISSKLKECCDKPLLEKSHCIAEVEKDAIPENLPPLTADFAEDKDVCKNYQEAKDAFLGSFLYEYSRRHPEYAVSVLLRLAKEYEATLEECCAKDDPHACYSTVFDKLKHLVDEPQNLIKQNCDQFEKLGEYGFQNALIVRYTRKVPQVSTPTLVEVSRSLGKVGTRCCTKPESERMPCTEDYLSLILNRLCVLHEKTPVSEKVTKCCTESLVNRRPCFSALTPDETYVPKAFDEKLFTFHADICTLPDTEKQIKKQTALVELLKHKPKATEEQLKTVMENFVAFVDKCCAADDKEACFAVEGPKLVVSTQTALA

In the case of `N=C(N)NN` [Aminoguanidine, reference compound], the “% Inhibition of protein glycation” value [1] is reported as 56%.
`COC(=O)CCCNC(=O)C1CCCN1C(=O)/C=C/c1cc(OC)c(O)c(OC)c1` (stereo not shown) [Compound 2c, (E)-methyl 4-(1-(3-(4-hydroxy-3,5-dimethoxyphenyl)-acryloyl)pyrrolidine-2-carboxamido)-butanoate] gave an IC50 [2] of 290 µM, an IC50 [3] of 298 µM and an inhibition at 100 µM [4] of 40%. The inhibition at 1000 µM [1] was 48%, the “% Interaction with DPPH” value ([5]; compound 25 μΜ) was 17% and the “% Interaction with DPPH” value ([5]; compound 50 μΜ) was 36%. For the same molecule, the “% Interaction with DPPH” value ([5]; compound 100 μΜ) was 64%, the “Time to completion of the reaction with DPPH” value (“Time to completion” below) ([5]; compound 200 μΜ) was “completed in the first five minutes” and the “% Interaction with DPPH” value ([5]; compound 200 μΜ) was 85%.
For `COC(=O)CCCNC(=O)C1CCCN1C(=O)C1(C)CCc2c(C)c(O)c(C)c(C)c2O1` (stereo not shown) [Compound 5c, Methyl 4-(1-(6-hydroxy-2,5,7,8-tetramethylchroman-2-carbonyl)pyrrolidine-2-carboxamido)-butanoate], the “Activity against lipid peroxidation relative to Trolox” value ([2]; comparison of IC50 values) was “about three times more active than Trolox”, the IC50 [2] was 8 µM and the “IC50, acetylcholinesterase” value [3] was “could not inhibit the enzyme and no inhibitory activity and -”. For the same molecule, the inhibition at 100 µM [4] was 26%, the inhibition at 1000 µM [1] was 37% and the “% Interaction with DPPH” value ([5]; compound 25 μΜ) was 28%. For the same molecule, the “% Interaction with DPPH” value ([5]; compound 50 μΜ) was 54%, the “% Interaction with DPPH” value ([5]; compound 100 μΜ) was 87% and the “Time to completion” value ([5]; compound 200 μΜ) was “completed in the first five minutes”. The “% Interaction with DPPH” value ([5]; compound 200 μΜ) was 89%.
For `Cc1c(C)c2c(c(C)c1O)CCC(C)(C(=O)O)O2` (stereo not shown) [Trolox, 6-hydroxy-2,5,7,8-tetramethylchroman-2-carboxylic acid], the IC50 [2] was 25 µM, the “% Interaction with DPPH” value ([5]; compound 25 μΜ) was 19% and the “% Interaction with DPPH” value ([5]; compound 50 μΜ) was 38%. The “% Interaction with DPPH” value ([5]; compound 100 μΜ) was 90% and the “% Interaction with DPPH” value ([5]; compound 200 μΜ) was 92%.
With `COC(=O)CCCNC(=O)C1CCCN1C(=O)/C=C/c1ccc(OC)c(OC)c1` (stereo not shown) [Compound 3c, (E)-methyl 4-(1-(3-(3,4-dimethoxyphenyl)acryloyl)pyrrolidine-2-carboxamido)butanoate] the “IC50, lipid peroxidation” value [2] was “could not inhibit lipid peroxidation”, the IC50 [2] was > 1000 µM and the IC50 [3] was 284 µM. The inhibition at 100 µM [4] was 32%, the “% Inhibition of protein glycation” value [1] was “did not exert any inhibition and -” and the “Interaction with DPPH (in words)” value [5] was “could not interact with DPPH at all”.
`COC(=O)CCCNC(=O)C1CCCN1C(=O)/C=C/c1ccc(O)c(OC)c1` (stereo not shown) [Compound 1c, (E)-methyl 4-(1-(3-(4-hydroxy-3-methoxyphenyl)acryloyl)pyrrolidine-2-carboxamido)butanoate] showed an IC50 [2] of 839 µM, an IC50 [3] of 219 µM and an inhibition at 100 µM [4] of 36%. For the same molecule, the inhibition at 1000 µM [1] was 41%, the “% Interaction with DPPH” value ([5]; compound 25 μΜ) was 10% and the “% Interaction with DPPH” value ([5]; compound 50 μΜ) was 24%. For the same molecule, the “% Interaction with DPPH” value ([5]; compound 100 μΜ) was 37%, the “Time to completion” value ([5]; compound 200 μΜ) was “about 15 min” and the “% Interaction with DPPH” value ([5]; compound 200 μΜ) was 58%.
In the case of `COC(=O)CCCNC(=O)C1CCCN1C(=O)/C=C/c1ccccc1` (stereo not shown) [Compound 4c, (E)-methyl 4-(1-cinnamoylpyrrolidine-2-carboxamido)butanoate], the “IC50, lipid peroxidation” value [2] is reported as “could not inhibit lipid peroxidation”, the IC50 [2] is reported as > 1000 µM and the “IC50, acetylcholinesterase” value [3] is reported as “-”. The inhibition at 100 µM [4] was 40%, the “% Inhibition of protein glycation” value [1] was “did not exert any inhibition and -” and the “Interaction with DPPH (in words)” value [5] was “could not interact with DPPH at all”.
